Test results as given in paper PMC6127852 (Journal of Enzyme Inhibition and Medicinal Chemistry, 2018).
Read-outs that look alike come from different tables or passages of the source.

Assays:
calf thymus ctDNA = assay: UV–Vis titration with ctDNA (Scatchard); format: binding; conditions: for Hypochromic effect H/%, ctDNA (from experimental data): footnote e: calculated from experimental data
How it was run: (§1)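 Polynucleotides titrated into compound at 1.48 × 10^−5 mol dm^−3 in PBS (I = 0.05 mol dm^−3, pH 7.0), with UV–Vis spectra in 1 cm quartz cells; ctDNA sonicated and filtered, concentration as nucleobases. Ks and n from Scatchard analysis, in some cases only from data at r ≥ 0.1.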

polyA-polyU [1] = assay: UV–Vis titration with polyA-polyU (Scatchard); format: binding; conditions: for Hypochromic effect H/%, polyA-polyU (from experimental data): footnote e: calculated from experimental data; for log Ks, polyA-polyU: binding constant, Scatchard
How it was run: as §1

polyC-polyG = assay: UV–Vis titration with polyC-polyG (Scatchard); format: binding; conditions: PBS, pH 7; for Hypochromic effect H/%, polyC-polyG: UV–Vis titration, calculated by Scatchard equation; for log Ks, polyC-polyG: binding constant, Scatchard
How it was run: as §1

E. faecium VRE = assay: Broth microdilution MIC, VRE clinical strain; format: cell-based; conditions: Enterococcus faecium
How it was run: (§2)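 MICs were set by CLSI broth microdilution in cation (Ca2+, Mg2+)-adjusted Mueller–Hinton broth, in triplicate. Panel: S. aureus ATCC 25923, MRSA, MSSA, E. faecalis, VRE E. faecium, E. coli ATCC 25925, P. aeruginosa ATCC 27853, A. baumannii ATCC 19606 and ESBL K. pneumoniae ATCC 27736.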

S. aureus ATCC 25923 = assay: Broth microdilution MIC, S. aureus ATCC 25923; format: cell-based; conditions: Staphylococcus aureus, ATCC25923; Table S2
How it was run: (§3)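 Compounds were serially tested in Ca^2+/Mg^2+-adjusted Mueller–Hinton broth using the CLSI-recommended microdilution procedure, then the lowest inhibitory concentration was recorded; each determination was done three times.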

E. faecalis ATCC 29212 = assay: Broth microdilution MIC, E. faecalis ATCC 29212; format: cell-based; conditions: Enterococcus faecalis, ATCC29212; Table S2
How it was run: as §3

E. coli ATCC 25925 = assay: Broth microdilution MIC, E. coli ATCC 25925; format: cell-based; conditions: Escherichia coli, ATCC25925; Table S2
How it was run: as §3

K. pneumonia ATCC 700803 = assay: Broth microdilution MIC, K. pneumoniae ATCC 700803; format: cell-based; conditions: Klebsiella pneumoniae, ATCC700803; Table S2
How it was run: as §3

P. aeruginosa ATCC 27853 = assay: Broth microdilution MIC, P. aeruginosa ATCC 27853; format: cell-based; conditions: Pseudomonas aeruginosa, ATCC27853; Table S2
How it was run: as §3

A. baumannii ATCC 19606 = assay: Broth microdilution MIC, A. baumannii ATCC 19606; format: cell-based; conditions: Acinetobacter baumannii, ATCC19606; Table S2
How it was run: as §3

[2] = test system: Gram-positive and Gram-negative bacteria; assay: Anti-microbial activity overall (all tested bacteria); format: cell-based; conditions: summary over tested strains; read-out: MIC, anti-microbial activities overall
Experimental: The compounds were evaluated for their in vitro anti-bacterial activity against Gram-positive bacteria: S. aureus (ATCC 25923), MRSA, methicillin-sensitive S. aureus (MSSA), E. faecalis, vancomycin-resistant E. faecium (VREF), and Gram-negative bacteria: E. coli (ATCC 25925), P. aeruginosa (ATCC 27853), A. baumannii (ATCC 19606) and ESBL-producing K. pneumoniae (ATCC 27736). Standard broth microdilution method as recommended in guidelines of Clinical and Laboratory Standards Institute[61] ^, [65] ^, [66] was applied and the minimum inhibitory concentration (MIC) of compounds was tested. In short, testing was performed in U-bottomed 96-well sterile plastic microdilution trays (Falcon 3077, Becton Dickinson Labware, Franklin Lakes, NJ) in cation (Ca^2+ and Mg^2+) adjusted Mueller–Hinton broth medium (Becton Dickinson and Co., Cockeysville, MD). All testings were performed in triplicate.

[3] = test system: bloodstream form T. brucei (strain 221); assay: Anti-trypanosomal screening, resazurin; format: cell-based; conditions: Trypanosoma brucei, mean of triplicate ± SEM
How it was run: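 Parasites grown in modified Iscove's medium with compound in triplicate; resazurin added at 48 h and plates read after a further 16 h.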

[4] = test system: L6 cells (a rat myoblast line); assay: Cytotoxicity against mammalian cells, resazurin; format: cell-based; conditions: L6, 144 h, 6 d incubation
Experimental: Cytotoxicity against mammalian cells was also assessed using microtitre plates. Briefly, L6 cells (a rat myoblast line) were seeded at 1 × 10^4 ml^−1 in 200 µl of growth medium containing different compound concentrations. The plates were then incubated for 6 d at 37 °C and 20 µl resazurin added to each well. After a further 8 h incubation, the fluorescence was determined using a Spectramax plate reader, as outlined above.

ctDNA = assay: Thermal melting (ΔTm) of ctDNA; format: binding, calf; conditions: PBS, pH 7
How it was run: (§4)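 UV melting monitored at 260 nm in 1 cm cuvettes, ligand absorbance subtracted and normalised; ΔTm = Tm(complex) − Tm(free nucleic acid), mean of at least two runs, error ±0.5 °C. Compound tested at r = 0.1, 0.3, 0.5 and 0.7 eq ([compound]/[polynucleotide]) with ctDNA and polyA-polyU.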

polyA-polyU [5] = assay: Thermal melting (ΔTm) of polyA-polyU; format: binding; conditions: for ΔTm, polyA-polyU, r = 0.1: PBS, pH 7; for ΔTm, polyA-polyU, r = 0.3 / ΔTm, polyA-polyU, r = 0.5: first melting midpoint; for ΔTm, polyA-polyU, r = 0.3, second melting midpoint / ΔTm, polyA-polyU, r = 0.5, second melting midpoint: footnote c: biphasic melting curve
How it was run: as §4

S. aureus MRSA = assay: Broth microdilution MIC, MRSA clinical strain; format: cell-based; conditions: Staphylococcus aureus, antibiotic-resistant clinical strain
How it was run: as §2

S. aureus MSSA = assay: Broth microdilution MIC, MSSA clinical strain; format: cell-based; conditions: Staphylococcus aureus
How it was run: as §2

[6] = test system: polyA-polyU (RNA, polymer) A/U; assay: UV melting at 260 nm; conditions: PBS, I = 0.05 M, cations not specified, pH 7, r = 0.3 [compound]/[polynucleotide], error ±0.5, biphasic, second midpoint 6.38, per base
[7] = test system: polyA-polyU (RNA, polymer) A/U; assay: UV-Vis titration, Scatchard; conditions: PBS, I = 0.05 M (Table 1 says I = 0.015 M), cations not specified, I = 0.015 M (Methods: 0.05 M), pH 7, per base
[8] = test system: polyG-polyC (polyC-polyG) (RNA, polymer) G/C; assay: UV-Vis titration, Scatchard; conditions: PBS, I = 0.05 M (Table 1 says I = 0.015 M), cations not specified, I = 0.015 M (Methods: 0.05 M), pH 7, per base
[9] = test system: bloodstream form T. brucei (strain 221); conditions: read-out: T. brucei IC50 (reference drug), ref [83]; cited from earlier work
[10] = UV–Vis titration, PBS, pH 7, calculated by Scatchard equation

Row | SMILES | Hypochromic effect H/%, ctDNA (from experimental data) (calf thymus ctDNA; UV–Vis titration, PBS, pH 7) | Hypochromic effect H/%, polyA-polyU (from experimental data) (polyA-polyU [1]) | Hypochromic effect H/%, polyC-polyG (polyC-polyG) [%] | log Ks, polyC-polyG (polyC-polyG) | MIC (E. faecium VRE) [µg/mL] | MIC (S. aureus ATCC 25923) [µg/mL] | MIC (E. faecalis ATCC 29212) [µg/mL] | MIC (E. coli ATCC 25925) [µg/mL] | MIC (K. pneumonia ATCC 700803) [µg/mL] | MIC (P. aeruginosa ATCC 27853) [µg/mL] | MIC (A. baumannii ATCC 19606) [µg/mL] | MIC [2] [µg/mL] | IC50 [3] [µM] | IC90 [3] [µM] | IC50 [4] [µM] | melting point [°C] | log Ks, polyA-polyU (polyA-polyU [1]; PBS, pH 7) | ΔTm, polyA-polyU, r = 0.1 (polyA-polyU [5]) [°C] | ΔTm, polyA-polyU, r = 0.3 (polyA-polyU [5]) [°C] | ΔTm, polyA-polyU, r = 0.3, second melting midpoint (polyA-polyU [5]) | further results
1 | COc1ccc(-n2cc(COc3ccc(-c4nc5cc(C(=N)N)ccc5[nH]4)cc3)nn2)cc1.Cl.Cl [Compound 7b, 2–(4-((1–(4-Methoxyphenyl)-1H-1,2,3-triazol-4-yl)methoxy)phenyl)-1H-benz[d]imidazole-5-carboximidamide dihydrochloride] | 22.1 ^e % | 27.9 ^e % | 13.7 | 6.27 | 256 | > 256 | 128 | > 256 | > 256 | > 256 | > 256 | ≥ 128 | 1.5 ± 0.3 | 8.1 ± 0.6 | 302 ± 15 | 195 to 197 | – | – | – | – | –
2 | COc1ccc(-n2cc(COc3ccc(-c4nc5cc(C(=N)NC(C)C)ccc5[nH]4)cc3)nn2)cc1.Cl.Cl [Compound 8b, N-isopropyl-2–(4-((1–(4-methoxyphenyl)-1H-1,2,3-triazol-4-yl)methoxy)phenyl)-1H-benz[d]imidazole-5-carboximidamide dihydrochloride] | – | – | 5.05 | 6.39 | 128 | 128 | 64 | 256 | > 256 | > 256 | > 256 | – | 1.1 ± 0.3 | 3.5 ± 0.2 | > 300 | 188 to 191 | 5.27 | 1.17 | 1.32 | 6.38^c °C | Hypochromic effect H/%, ctDNA (calf thymus ctDNA; [10]): 29.7%; log Ks, ctDNA (range r ≥ 0.1) (calf thymus ctDNA; footnote f: mixed binding mode, calculated in range r ≥ 0.1): 6.06; Hypochromic effect H/%, polyA-polyU (polyA-polyU [1]; [10]): 57.8%; ΔTm, ctDNA, r = 0.5 (ctDNA; r = 0.5): 3.96 °C; ΔTm, ctDNA, r = 0.7 (ctDNA; r = 0.7): 4.47 °C; ΔTm, ctDNA, r = 0.3 (ctDNA; r = [compound]/[polynucleotide] 0.3, error ±0.5 °C): 4.03 °C; ΔTm, polyA-polyU, r = 0.5 (polyA-polyU [5]): 1.56 °C; ΔTm, polyA-polyU, r = 0.5, second melting midpoint (polyA-polyU [5]): 8.49^c °C; MIC (S. aureus MRSA): 16 µg/mL; MIC (S. aureus MSSA): 64 µg/mL; ΔTm [6]: 1.32 °C; log Ks [7]: 5.27; log Ks [8]: 6.39
3 | COc1ccc(-n2cc(COc3ccc(-c4nc5cc(C6=NCCN6)ccc5[nH]4)cc3)nn2)cc1.Cl.Cl [Compound 9b, 5–(4,5-Dihydro-1H-imidazol-2-yl)-2–(4-((1–(4-methoxyphenyl)-1H-1,2,3-triazol-4-yl)methoxy)phenyl)-1H-benz[d]imidazole dihydrochloride] | 18.9 ^e % | 31.6 ^e % | – | – | 256 | 128 | 256 | 256 | > 256 | > 256 | > 256 | ≥ 128 | 1.6 ± 0.4 | 7.3 ± 0.3 | 263 ± 15 | 197 to 199 | 5.46 | 2.49 | 2.67 | 36.08^c °C | ΔTm, polyA-polyU, r = 0.5 (polyA-polyU [5]): 2.92 °C; ΔTm, polyA-polyU, r = 0.5, second melting midpoint (polyA-polyU [5]): 40.93^c °C; MIC (S. aureus MRSA): 256 µg/mL; MIC (S. aureus MSSA): 256 µg/mL
4 | CC1CS(=O)(=O)CCN1/N=C/c1ccc([N+](=O)[O-])o1 (stereo not drawn) [Nifurtimox, nifurtimox] | – | – | – | – | – | – | – | – | – | – | – | – | – | – | – | – | – | – | – | – | IC50 [9]: 4.4 ± 0.7 µM
